Where “and” joins values, the source holds several entries; their conditions need not be identical. Identical values can stand only once. Like-named read-outs stand apart in the source and are kept apart here.

In data set [1] the target is T1, hBChE (Homo sapiens, UniProt P06276). The data set is described as follows: biochemical. The following applies: hBChE IC50 ± SEM, two independent experiments, each in triplicate.
In data set [2] the target is hAChE.
The target of data set [3] is T2, hAChE (Homo sapiens, UniProt P22303). The data set is described as follows: biochemical. The following applies: hAChE IC50 ± SEM, two independent experiments, each in triplicate.
T2 sequence (P22303 32-614): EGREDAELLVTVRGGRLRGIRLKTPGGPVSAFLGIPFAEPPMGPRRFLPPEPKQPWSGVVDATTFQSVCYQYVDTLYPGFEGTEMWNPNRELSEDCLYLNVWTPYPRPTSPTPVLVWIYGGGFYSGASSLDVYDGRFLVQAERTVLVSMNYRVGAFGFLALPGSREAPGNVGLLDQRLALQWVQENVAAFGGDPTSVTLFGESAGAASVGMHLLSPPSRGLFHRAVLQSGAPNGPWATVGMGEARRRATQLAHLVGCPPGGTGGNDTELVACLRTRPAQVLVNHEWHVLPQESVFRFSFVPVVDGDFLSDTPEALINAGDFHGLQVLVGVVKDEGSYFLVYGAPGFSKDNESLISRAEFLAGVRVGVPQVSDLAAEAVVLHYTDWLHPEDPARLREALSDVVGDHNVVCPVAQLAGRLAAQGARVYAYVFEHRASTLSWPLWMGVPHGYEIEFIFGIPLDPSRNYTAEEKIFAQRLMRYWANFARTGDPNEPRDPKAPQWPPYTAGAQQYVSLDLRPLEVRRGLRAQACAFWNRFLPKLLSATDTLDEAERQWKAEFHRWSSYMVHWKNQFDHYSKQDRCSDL
Experimental: (§1) The inhibitory potencies of the compounds against the ChEs were determined using the method of Ellman. […] The final content of DMSO was always 1% [v/v]. […] The initial velocities in the presence (v i ) and absence (v 0) of the test compounds were calculated. The inhibitory potencies were expressed as the residual activities, according to RA = (v i – b)/(v 0 – b), where b is the blank value using phosphate buffer without ChEs. For IC50 determinations, at least seven different concentrations for each compound were used. The IC50 values were obtained by plotting the residual ChE activities against the applied inhibitor concentrations, with the experimental data fitted to a four-parameter logistic function (GraphPad Prism 10.0).
In data set [4] the target is T3, human p38α MAPK (Homo sapiens, UniProt Q16539). The data set is described as follows: biochemical. The following applies: p38α MAPK IC50 ± SEM, two independent experiments, each in triplicate.
T3 sequence (Q16539 whole entry): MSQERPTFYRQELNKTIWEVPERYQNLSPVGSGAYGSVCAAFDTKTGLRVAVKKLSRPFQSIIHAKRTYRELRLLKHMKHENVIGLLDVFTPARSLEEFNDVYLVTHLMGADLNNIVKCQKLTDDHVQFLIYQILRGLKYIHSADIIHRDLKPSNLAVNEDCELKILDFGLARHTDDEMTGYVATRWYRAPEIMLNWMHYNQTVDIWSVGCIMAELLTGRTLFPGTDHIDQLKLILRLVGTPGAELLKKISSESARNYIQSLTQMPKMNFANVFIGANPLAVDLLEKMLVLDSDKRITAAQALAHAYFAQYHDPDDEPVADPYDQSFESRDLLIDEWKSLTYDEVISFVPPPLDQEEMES
For data set [5], the target named is hAChE. The source holds these as a separate data set.
Data set [6] has as its target p38α MAPK.
In data set [7] the target is hBChE.
The target of data set [8] is hBChE. This is another data set of the same source.
Data set [9] addresses T2, hAChE. To be noted: residual activity at 100 μM; mean ± SD, one experiment in triplicate.
Experimental: as §1
The target of data set [10] is p38α MAPK. The source holds these as a separate data set.
The target of data set [11] is T1, hBChE. To be noted: for hBChE RA at 100 μM: residual activity at 100 μM, mean ± SD, one experiment in triplicate.
Data set [12] deals with T3, human p38α MAPK. To be noted: for p38α MAPK RA at 100 μM: residual activity at 100 μM, mean ± SD, one experiment in triplicate.

T1 sequence (P06276 29-602): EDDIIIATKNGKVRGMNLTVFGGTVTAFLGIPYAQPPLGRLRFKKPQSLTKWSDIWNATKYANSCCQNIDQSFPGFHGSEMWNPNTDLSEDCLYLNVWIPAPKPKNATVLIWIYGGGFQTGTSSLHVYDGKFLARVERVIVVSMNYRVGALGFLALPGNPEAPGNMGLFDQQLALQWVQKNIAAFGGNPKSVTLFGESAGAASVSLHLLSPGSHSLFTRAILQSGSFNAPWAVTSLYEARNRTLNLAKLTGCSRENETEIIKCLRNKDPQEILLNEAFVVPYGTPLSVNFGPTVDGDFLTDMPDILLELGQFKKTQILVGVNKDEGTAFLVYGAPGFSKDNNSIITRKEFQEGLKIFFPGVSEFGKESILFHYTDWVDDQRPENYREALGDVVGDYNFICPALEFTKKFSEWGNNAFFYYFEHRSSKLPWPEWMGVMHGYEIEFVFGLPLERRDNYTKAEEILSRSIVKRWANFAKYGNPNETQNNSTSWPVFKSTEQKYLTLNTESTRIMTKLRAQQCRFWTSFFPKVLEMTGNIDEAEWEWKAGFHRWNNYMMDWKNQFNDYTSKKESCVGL

Regarding `CN(C)CCNC(=O)c1cc2c(cnn2CC2CCCCC2)cc1Oc1ccc(F)cc1F` [Compound 75, 1-(Cyclohexylmethyl)-5-(2,4-difluorophenoxy)-N-(2-(dimethylamino)ethyl)-1H-indazole-6-carboxamide], the IC50 was 2.89 µM and 2.9 µM on hBChE [1]; 64.4 µM against hAChE [2]; 64.4 ± 24.5 µM against hAChE [3]; 0.142 ± 0.079 µM at human p38α MAPK [4]; 64.4 µM against hAChE [5]; 0.142 µM against p38α MAPK [6].
In the case of `CN(C)CCNC(=O)c1cc2c(cnn2C2C=CCCC2)cc1Oc1ccc(F)cc1F` (stereo not shown) [Compound 83, 1-(Cyclohex-2-en-1-yl)-5-(2,4-difluorophenoxy)-N-(2-(dimethylamino)ethyl)-1H-indazole-6-carboxamide], the IC50 was 8.35 µM against hBChE [1]; 8.35 µM on hBChE [7]; 0.088 ± 0.02 µM against human p38α MAPK [4]; 8.35 µM at hBChE [8]; 0.088 µM on p38α MAPK [6]. For the same compound, the “RA at 100 µM” value amounted to 52.9 ± 2.7% in the data set on hAChE [2] and 53 ± 3% in the data set on hAChE [5]. Besides, the “hAChE RA at 100 μM” value at hAChE [9] was 52.9% and 53 ± 3% and 52.9 ± 2.7%.
In the case of `CN(C)CCCNC(=O)c1cc2c(cnn2CC2CC2)cc1Oc1ccc(F)cc1F` [Compound 74, 1-(Cyclopropylmethyl)-5-(2,4-difluorophenoxy)-N-(3-(dimethylamino)propyl)-1H-indazole-6-carboxamide], the IC50 against hBChE [1] was 8.68 ± 1.83 µM; at hAChE [2], 110 µM; against hAChE [3], 110 ± 38.4 µM; at human p38α MAPK [4], 0.096 ± 0.011 µM; at p38α MAPK [10], 0.096 µM.
In the case of `CC(C)Cn1ncc2cc(S(=O)(=O)c3ccc(F)cc3F)c(C(=O)NCCN(C)C)cc21` [Compound 93, 5-((2,4-Difluorophenyl)sulfonyl)-N-(2-(dimethylamino)ethyl)-1-isobutyl-1H-indazole-6-carboxamide], the “hBChE RA at 100 μM” value on hBChE [11] is 77.6% and 77.6 ± 3.1%. Further, the “RA at 100 µM” value amounted to 98.0 ± 2.7% in the data set with hAChE [2], 77.6 ± 3.1% in the data set with hBChE [7] and 5.9 ± 0.2% with p38α MAPK [10]. Further, the “p38α MAPK RA at 100 μM” value on human p38α MAPK [12] was 5.9 ± 0.2%. Besides, the “hAChE RA at 100 μM” value at hAChE [9] was 98.0% and 98.0 ± 2.7%.
Consider `COC1CCCN(CCNC(=O)c2cc3nn(CC4CCCCC4)cc3cc2Oc2ccc(F)cc2F)C1` (stereo not shown) [Compound 101], for which the IC50 is 0.184 ± 0.031 µM at hBChE [1] and 0.184 µM at hBChE [7]. The entries for the “RA at 100 µM” value in the data set on hAChE [2] and with p38α MAPK [10] were 51.8 ± 1.6% and 94.3 ± 2.4%, respectively. The “p38α MAPK RA at 100 μM” value at human p38α MAPK [12] was 94.3% and 94.3 ± 2.4%. Besides, the “hAChE RA at 100 μM” value at hAChE [9] worked out at 51.8 ± 1.6%.
With `CC(C)Cn1ncc2cc(Oc3cccc4ccccc34)c(C(=O)NCCN(C)C)cc21` [Compound 89, N-(2-(Dimethylamino)ethyl)-1-isobutyl-5-(naphthalen-1-yloxy)-1H-indazole-6-carboxamide], the IC50 against hBChE [1] is 10.6 µM; at hAChE [2], 61.3 µM; against hAChE [3] it was 61.3 µM; against hAChE [5] it was 61.3 µM. The “RA at 100 µM” value in the data set with p38α MAPK [10] is listed as 0.9 ± 0.3%. Moreover, the “p38α MAPK RA (1 μM)” value at human p38α MAPK [12] (residual activity at 1 μM) was 24 ± 0%. Besides, the “p38α MAPK RA (10 μM)” value on human p38α MAPK [12] (residual activity at 10 μM) is 5 ± 0%. The “p38α MAPK RA at 100 μM” value at human p38α MAPK [12] was 0.9 ± 0.3% and 1 ± 0%. Further, the “RA (1 μM)” value with p38α MAPK [6] was “RA (1 μM): 24 ± 0%”. In addition, in the data set on p38α MAPK [6], the “RA (10 μM)” value is reported as “RA (10 μM): 5 ± 0%”. Moreover, the “RA (100 μM)” value with p38α MAPK [6] is “RA (100 μM): 1 ± 0%”.
On to “Methyl-1-(cyclopropylmethyl)-5-(2,4-difluorophenoxy)-1H-indazole-6-carboxylate [Compound 27]”, for which, on hBChE [11], the “hBChE RA at 100 μM” value is 76.6% and 76.6 ± 11.7%. The 50% inhibitory concentration (IC50) on human p38α MAPK [12] (read-out: p38α MAPK IC50 ± SEM, two independent experiments, each in triplicate) came out at 0.33 ± 0.158 µM. The “hAChE RA at 100 μM” value on hAChE [9] is 81.1% and 81.1 ± 2.3%.
Regarding `CC(C)Cn1ncc2cc(Oc3ccc4ccccc4c3)c(C(=O)NCCN(C)C)cc21` [Compound 90, N-(2-(Dimethylamino)ethyl)-1-isobutyl-5-(naphthalen-2-yloxy)-1H-indazole-6-carboxamide], the IC50 was 11.5 ± 2 µM at hBChE [1], 116 µM at hAChE [2] and 116 ± 27.8 µM against hAChE [3]. The “RA at 100 µM” value with p38α MAPK [10] was 9.5 ± 0.6%. Besides, the “p38α MAPK RA at 100 μM” value on human p38α MAPK [12] is given as 9.5 ± 0.6%.
`CN(C)CCNC(=O)c1cc2c(cnn2CC2CC2)cc1Oc1ccc(F)cc1F` [Compound 73, 1-(Cyclopropylmethyl)-5-(2,4-difluorophenoxy)-N-(2-(dimethylamino)ethyl)-1H-indazole-6-carboxamide]: the IC50 against hBChE [1] came to 10.5 ± 1.51 µM; against hAChE [3], 83.9 ± 28.9 µM; against human p38α MAPK [4] it was 0.362 ± 0.139 µM; against hAChE [5], 83.9 µM; against p38α MAPK [6] it was 0.362 µM.
Take `O/N=C/c1cc[n+](COC[n+]2ccc(/C=N/O)cc2)cc1` [Obidoxime, reference compound]: the “CNS (+/–)” value (predicted BBB permeation from Pe) was “CNS– (CNS– indicates low predicted BBB permeation [Pe (×10–6 cm/s) < 2.0])”.
For `CC(C)Cn1ncc2cc(Oc3ccc(F)cc3)c(C(=O)NCCN(C)C)cc21` [Compound 88, N-(2-(Dimethylamino)ethyl)-5-(4-fluorophenoxy)-1-isobutyl-1H-indazole-6-carboxamide], the IC50 against hBChE [1] was determined as 6.38 ± 0.511 µM; against hAChE [2], 71.3 µM; on hBChE [7], 6.38 µM; against human p38α MAPK [4], 0.276 ± 0.015 µM; against p38α MAPK [10], 0.276 µM.
For the compound `O=C(NCCn1ccnc1)c1cc2c(cnn2CC2CCCCC2)cc1Oc1ccc(F)cc1F` [Compound 82, N-(2-(1H-Imidazol-1-yl)ethyl)-1-(cyclohexylmethyl)-5-(2,4-difluorophenoxy)-1H-indazole-6-carboxamide], the IC50 at hBChE [1] stood at 18.7 ± 6.1 µM; against hBChE [7], 18.7 µM; against human p38α MAPK [4] it was 0.218 ± 0.017 µM; on p38α MAPK [10] it was 0.218 µM. The “RA at 100 µM” value in the data set on hAChE [2] was found to be 65.1 ± 2.5%. Moreover, on hAChE [9], the “hAChE RA at 100 μM” value is 65.1% and 65.1 ± 2.5%.
Regarding `CN(C)CCNC(=O)c1cc2nn(CC3CCCCC3)cc2cc1Oc1ccc(F)cc1F` [Compound 99, 2-(Cyclohexylmethyl)-5-(2,4-difluorophenoxy)-N-(2-(dimethylamino)ethyl)-2H-indazole-6-carboxamide], the IC50 on hBChE [1] came to 0.167 ± 0.0203 µM; against hAChE [3], 28.9 ± 8.16 µM; on human p38α MAPK [4] it was 6.78 ± 2.85 µM; on hAChE [5] it was 28.9 µM; at p38α MAPK [6] it was 6.78 µM.
Consider `CC(C)Cn1ncc2cc(Sc3ccc(F)cc3F)c(C(=O)NCCN(C)C)cc21` [Compound 92, 5-((2,4-Difluorophenyl)thio)-N-(2-(dimethylamino)ethyl)-1-isobutyl-1H-indazole-6-carboxamide], for which the IC50 on hBChE [1] was found to be 2.25 µM; on hBChE [7] it was 2.25 µM; against human p38α MAPK [4], 0.053 ± 0.017 µM; against hBChE [8], 2.25 µM; on p38α MAPK [6], 0.053 µM. Also, the “RA at 100 µM” value in the data set with hAChE [2] is listed as 62.8 ± 3.0%; with hAChE [5], 63 ± 3%. The “hAChE RA at 100 μM” value at hAChE [9] was 62.8% and 63 ± 3% and 62.8 ± 3.0%.
For `COCC1CCCN(CCNC(=O)c2cc3c(cnn3CC3CCCCC3)cc2Oc2ccc(F)cc2F)C1` (racemic) [Compound 79, (±)-1-(Cyclohexylmethyl)-5-(2,4-difluorophenoxy)-N-(2-(3-(methoxymethyl)piperidin-1-yl)ethyl)-1H-indazole-6-carboxamide], the IC50 against hBChE [1] came to 3.6 ± 0.825 µM; against hBChE [7], 3.6 µM; against human p38α MAPK [4], 0.379 ± 0.126 µM; on p38α MAPK [10], 0.379 µM. Moreover, the “RA at 100 µM” value with hAChE [2] was “*11.6 ± 1.3%”.
For the compound `CO/N=C(\C(=O)N[C@@H]1C(=O)N2C(C(=O)O)=C(COC(N)=O)CS[C@H]12)c1ccco1` [Cefuroxime, reference compound], where the note is “PAMPA”, the “CNS (+/–)” value is “CNS– (key: CNS+ indicates high predicted BBB permeation [Pe (×10–6 cm/s) > 4.0]; CNS– indicates low predicted BBB permeation [Pe (×10–6 cm/s) < 2.0])”.
Turning to “5-(2,4-Difluorobenzyl)-N-(2-(dimethylamino)ethyl)-1-methyl-2H-indazole-6-carboxamide [Compound 109]”, the IC50 on hBChE [11] (read-out: hBChE IC50 ± SEM, two independent experiments, each in triplicate) worked out at 1.06 ± 0.97 µM. For the same compound, the “p38α MAPK RA at 100 μM” value at human p38α MAPK [12] is 89.6% and 89.6 ± 13.6%. Also, on hAChE [9], the “hAChE RA at 100 μM” value is on record as 81.4 ± 7.5%.
In the case of `CN(C)CCCNC(=O)c1cc2nn(CC3CCCCC3)cc2cc1Oc1ccc(F)cc1F` [Compound 100, 2-(Cyclohexylmethyl)-5-(2,4-difluorophenoxy)-N-(3-(dimethylamino)propyl)-2H-indazole-6-carboxamide], the IC50 was 0.499 ± 0.045 µM on hBChE [1]; 41.9 µM at hAChE [2]; 41.9 ± 13.9 µM against hAChE [3]; 16.2 ± 2.97 µM against human p38α MAPK [4]; 16.2 µM against p38α MAPK [10].
With `O=C(NCCN1CCOCC1)c1cc2nn(CC3CCCCC3)cc2cc1Oc1ccc(F)cc1F` [Compound 103], the IC50 was 10.8 ± 2.07 µM against hBChE [1] and 10.8 µM at hBChE [7]. For the same compound, the “RA at 100 µM” value with hAChE [2] was 78.3 ± 2.1%; with p38α MAPK [10], 66.8 ± 5.9%. The “p38α MAPK RA at 100 μM” value on human p38α MAPK [12] was 66.8% and 66.8 ± 5.9%. Further, the “hAChE RA at 100 μM” value on hAChE [9] is on record as 78.3 ± 2.1%.
As for “N-(2-(1H-Pyrrol-1-yl)ethyl)-1-(cyclohexylmethyl)-5-(2,4-difluorophenoxy)-2H-indazole-6-carboxamide [Compound 104]”, at hBChE [11], the “hBChE RA at 100 μM” value was determined as 34.4±1.5%. Moreover, the “p38α MAPK RA at 100 μM” value at human p38α MAPK [12] was 81.2% and 81.2 ± 6.6%. The “hAChE RA at 100 μM” value on hAChE [9] came to 67.6 ± 2.3%.
